From patent publication US9216971B2 (priority 2007, dated 2015) come the findings set out here.

SMILES strings stand for the structures. Like-named read-outs stand apart in the source and are kept apart here. Some results are limits rather than exact numbers.

The test system of experiment [1] is pilocarpine-induced salivation. Description: Rat antisialagogue assay. Format: in vivo. The note with it: evaluated at 1, 6, and 24 hours post-dose. The method, then:
Rats (Sprague-Dawley, male, 250-350 g) are dosed, anesthetized and cannulated as described for Assay 3. At predetermined time points and after surgery, animals are placed on their dorsal side at a 20° incline with their head in a downward slope. A pre-weighed gauze pad is inserted in the animal's mouth and the muscarinic agonist pilocarpine (PILO) (3 mg/kg, IV) is administered. Saliva produced during 10 minutes post-PILO is measured gravimetrically by determining the weight of the gauze pad before and after PILO. Antisialagogue effects are expressed as % inhibition of salivation relative to control animals.
The rat antisialagogue assay was developed to assess systemic exposure and calculate the lung selectivity index (LSI) of test compounds. The standard, tiotropium, was evaluated in this model at 1, 6, and 24 hours post-dose. […] This finding is consistent with the peak effects observed in the Einthoven assay.
This model is a modified version of the procedure described in Rechter, “Estimation of anticholinergic drug effects in mice by antagonism against pilocarpine-induced salivation” Ata Pharmacol Toxicol 24:243-254 (1996). The mean weight of saliva in vehicle-treated animals, at each pre-treatment time, is calculated and used to compute % inhibition of salivation, at the corresponding pre-treatment time, at each dose.

For a further experiment, the system named is MCh response. The note with it: rat.
Experiment [2] addresses T1, hM3 muscarinic receptor subtype (Homo sapiens, UniProt P20309).
T1 construct: expressed in transfected cells; membranes prepared
Description: biochemical. It is filed as binding.

In a further experiment the target is T2, hM2 receptor (Homo sapiens, UniProt P08172).
T2 construct: expressed in transfected cells; host or cells: CHO-K1 cells
T2 sequence (P08172 1-466): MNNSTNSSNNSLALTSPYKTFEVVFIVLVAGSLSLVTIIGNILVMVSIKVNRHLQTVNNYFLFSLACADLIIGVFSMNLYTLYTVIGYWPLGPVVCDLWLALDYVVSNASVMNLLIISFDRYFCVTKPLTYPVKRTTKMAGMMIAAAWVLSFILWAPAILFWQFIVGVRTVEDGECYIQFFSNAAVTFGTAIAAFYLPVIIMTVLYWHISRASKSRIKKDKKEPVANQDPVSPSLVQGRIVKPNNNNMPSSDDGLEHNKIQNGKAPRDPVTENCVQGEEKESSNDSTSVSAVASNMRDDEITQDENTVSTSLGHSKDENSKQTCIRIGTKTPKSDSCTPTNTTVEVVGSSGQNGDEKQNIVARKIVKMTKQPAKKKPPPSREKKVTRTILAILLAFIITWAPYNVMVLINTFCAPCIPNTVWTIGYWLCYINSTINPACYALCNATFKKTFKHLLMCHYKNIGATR
Description: Blockade of agonist-mediated inhibition of cAMP accumulation. It is filed as cell-based. To be noted: CHO-K1 cells expressing the hM2 receptor; read-out: Ki for blockade of oxotremorine-inhibition of forskolin-mediated cAMP accumulation. A general note: Changes in cAMP serve as a functional read-out for many G protein-coupled receptors.

T1 sequence (P20309 whole entry): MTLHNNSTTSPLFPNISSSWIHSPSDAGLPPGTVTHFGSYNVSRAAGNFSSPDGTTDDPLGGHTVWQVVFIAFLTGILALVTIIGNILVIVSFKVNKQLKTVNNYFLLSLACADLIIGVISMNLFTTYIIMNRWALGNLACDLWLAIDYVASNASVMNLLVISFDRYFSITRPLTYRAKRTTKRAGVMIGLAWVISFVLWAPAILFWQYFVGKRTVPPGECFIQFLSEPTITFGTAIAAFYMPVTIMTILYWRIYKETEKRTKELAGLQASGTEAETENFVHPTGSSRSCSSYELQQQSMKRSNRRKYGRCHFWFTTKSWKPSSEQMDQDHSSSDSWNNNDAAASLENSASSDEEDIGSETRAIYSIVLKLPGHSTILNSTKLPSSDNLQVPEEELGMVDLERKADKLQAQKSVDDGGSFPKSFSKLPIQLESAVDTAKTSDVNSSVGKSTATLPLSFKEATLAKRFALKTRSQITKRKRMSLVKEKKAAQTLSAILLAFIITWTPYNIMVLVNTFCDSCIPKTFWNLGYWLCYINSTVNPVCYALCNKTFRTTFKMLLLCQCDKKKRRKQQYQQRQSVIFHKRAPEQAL

Turning to `C[N+]1(C)[C@@H]2C[C@@H](OC(=O)C(O)(c3cccs3)c3cccs3)C[C@H]1[C@@H]1O[C@@H]12` [tiotropium], the “time post dose at which most potent at inhibiting pilocarpine-induced salivation” value in experiment [1] stood at 6 h. In addition, in the experiment on MCh response (in vivo), the “ID50 (bronchoprotective potency)” value came out at 6 µg/mL; the “fold more potent at 6 hour and 24 hour compared to 1.5 hour potency” value was “about 2 fold”; the “time of peak bronchoprotection post-dose” value was 6 h.

Regarding `C[N+]1(C)CCC(OC(=O)C(O)(c2ccccc2)C2CCCC2)C1` (stereo not shown) [glycopyrrolate], the “ID50 (bronchoprotective potency)” value with MCh response (inhalation, 1.5 hours post-dose) amounted to 15 µg/mL.

As for `CC(C)[N+]1(C)[C@@H]2CC[C@H]1C[C@@H](OC(=O)C(CO)c1ccccc1)C2` (stereo partly shown) [ipratropium], in the experiment on MCh response (in vivo), the “ID50 (bronchoprotective potency)” value is 4.4 µg/mL and the “fold less potent 6-hours post-dose compared to 1.5 hour potency” value is “about 3 fold”.

The term Ki denotes a dissociation constant, usually derived from enzyme kinetics or from competition with a known ligand. The molecule `C[N+](C)(CCc1ccccc1)C1CCN(C(=O)[C@](O)(c2ccccc2)C2CCCC2)CC1` [Example 1, [1-((R)-2-cyclopentyl-2-hydroxy-2-phenylacetyl)piperidin-4-yl]dimethylphenethylammonium] had a Ki in experiment [2] below 1 nM.

`C[N+](C)(CCc1cccc(O)c1)C1CCN(C(=O)[C@](O)(c2ccccc2)C2CCCC2)CC1` [Example 2, [1-((R)-2-cyclopentyl-2-hydroxy-2-phenylacetyl)piperidin-4-yl][2-(3-hydroxyphenyl)ethyl]dimethylammonium]: the Ki (in experiment [2]; on hM2 receptor) was below 1 nM throughout.
